Like-named read-outs stand apart in the source and are kept apart here.
Key:
[1] = biological target: full length recombinant Pim-3 (Homo sapiens (Human), UniProt Q86V86); assay: Pim enzyme assay (HTRF, phosphorylation of biotinylated-BAD (S112) peptide), Pim-3; format: biochemical; details: Pim-3 enzyme assay; read-out: Pim3 IC50
In short: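 IC50 values were fitted with a 4-parameter logistic model to percent-of-control HTRF signal (Eu anti-phospho-BAD S112 antibody/streptavidin-APC). Reactions used full-length Pim-3 and biotin-BAD (S112) peptide, ran 1 h 30 min at RT (22 °C) in Hepes pH 7.0 buffer with BSA and DTT, and were stopped by 3 mM EDTA.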

[2] = biological target: full length recombinant Pim-2 (Homo sapiens (Human), UniProt Q9P1W9); assay: Pim enzyme assay (HTRF, phosphorylation of biotinylated-BAD (S112) peptide), Pim-2; format: biochemical; details: Pim-2 enzyme assay; read-out: Pim2_IC50
[3] = biological target: full length recombinant Pim-1 (Homo sapiens (Human), UniProt P11309); assay: Pim enzyme assay (HTRF, phosphorylation of biotinylated-BAD (S112) peptide), Pim-1; format: biochemical; details: read-out: Pim_1_IC50
[4] = tested on: Pim-2 stably transfected U2OS human osteogenic sarcoma line; assay: Pim cell assay U2OS (phospho-BAD normalized against total BAD), Pim-2 transfected; format: cell-based; details: Homo sapiens; U2OS cells, Pim-2 transfected; read-out: U2OS Pim2_Cell_IC50
[5] = tested on: Pim-1 stably transfected U2OS human osteogenic sarcoma line; assay: Pim cell assay U2OS (phospho-BAD normalized against total BAD), Pim-1 transfected; format: cell-based; details: Homo sapiens, U2OS
[6] = read-out: U2OS Pim1_Cell_IC50, U2OS cells, Pim-1 transfected

full length recombinant Pim-1, sequence (P11309 whole entry): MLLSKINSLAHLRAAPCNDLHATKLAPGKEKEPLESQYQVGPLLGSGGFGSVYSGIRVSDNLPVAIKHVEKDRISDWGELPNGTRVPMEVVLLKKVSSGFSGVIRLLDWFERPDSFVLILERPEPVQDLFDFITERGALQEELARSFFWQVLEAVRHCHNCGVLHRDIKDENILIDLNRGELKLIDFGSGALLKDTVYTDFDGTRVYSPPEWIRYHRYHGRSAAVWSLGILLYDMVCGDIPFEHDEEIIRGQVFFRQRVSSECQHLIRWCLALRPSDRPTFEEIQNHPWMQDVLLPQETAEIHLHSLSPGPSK
full length recombinant Pim-2, sequence (Q9P1W9 whole entry): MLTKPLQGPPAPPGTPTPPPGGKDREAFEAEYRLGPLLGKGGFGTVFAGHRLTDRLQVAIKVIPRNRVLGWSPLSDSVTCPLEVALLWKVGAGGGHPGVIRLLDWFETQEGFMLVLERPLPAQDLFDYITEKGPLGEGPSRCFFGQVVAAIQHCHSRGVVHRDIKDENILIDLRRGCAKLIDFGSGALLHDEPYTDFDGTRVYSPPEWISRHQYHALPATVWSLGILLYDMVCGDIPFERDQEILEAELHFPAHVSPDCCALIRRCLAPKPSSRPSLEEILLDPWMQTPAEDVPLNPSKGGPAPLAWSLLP

SMILES | IC50 [1] [nM] | IC50 [2] [nM] | IC50 ([3]; Pim-1 enzyme assay) [nM] | IC50 [4] [nM] | IC50 ([5]; read-out: U2OS Pim1_Cell_IC50) [nM] | IC50 [3] [nM] | IC50 [5, 6] [nM]
c1cc2[nH]cc(-c3cncc(C4CC4)n3)c2cc1-c1nnc(NC2CC2)o1 [Example 49, N-cyclopropyl-5-(3-(6-cyclopropylpyrazin-2-yl)-1H-indol-5-yl)-1,3,4-oxadiazol-2-amine] | 1.82 | 7.64 | 3.43 | 2680 | 83.4 |  | 
CC(C)Oc1cncc(-c2c[nH]c3ccc(-c4nnc(N)s4)cc23)n1 [Example 159, 5-(3-(6-(1-methylethoxy)-2-pyrazinyl)-1H-indol-5-yl)-1,3,4-thiadiazol-2-amine] | 3 | 16.6 |  | 2220 |  | 8.2 | 91.9
Nc1nnc(-c2ccc3[nH]cc(-c4ccc5cn[nH]c5c4)c3c2)s1 [Example 171, 5-(3-(1H-indazol-6-yl)-1H-indol-5-yl)-1,3,4-thiadiazol-2-amine] | 13.9 | 58.3 | 36.6 | > 31600 |  |  | 2660
Nc1nnc(-c2ccc3[nH]cc(-c4cccc(NCC5CC5)n4)c3c2)s1 [Example 204, 6-(5-(5-amino-1,3,4-thiadiazol-2-yl)-1H-indol-3-yl)-N-(cyclopropylmethyl)-2-pyridinamine] | 18.2 | 145 | 82.9 | 7720 | 466 |  | 
CNc1nnc(-c2ccc3[nH]cc(-c4nccc(N5CCCCC5)n4)c3c2)s1 [Example 135, N-methyl-5-(3-(4-(1-piperidinyl)-2-pyrimidinyl)-1H-indol-5-yl)-1,3,4-thiadiazol-2-amine] | 32.7 | 59.7 | 86.1 | > 31600 |  |  | 8440
CNc1nnc(-c2ccc3[nH]cc(-c4nccc(N5CCC[C@H](N)C5)n4)c3c2)s1 [Example 128, (3S)-1-(2-(5-(5-(methylamino)-1,3,4-thiadiazol-2-yl)-1H-indol-3-yl)-4-pyrimidinyl)-3-piperidinamine] | 0.734 | 1.53 | 2.91 | 15900 |  |  | 13800
CC(C)Nc1cncc(-c2c[nH]c3ccc(-c4nnc(N)o4)cc23)n1 [Example 101, 6-(5-(5-amino-1,3,4-oxadiazol-2-yl)-1H-indol-3-yl)-N-(1-methylethyl)-2-pyrazinamine] | 0.901 | 4.03 | 1.5 | 809 |  |  | 66.4
CCN(CC)c1cncc(-c2c[nH]c3ccc(-c4nnc(N)s4)cc23)n1 [Example 154, 6-(5-(5-amino-1,3,4-thiadiazol-2-yl)-1H-indol-3-yl)-N,N-diethyl-2-pyrazinamine] | 1.45 | 20 | 2 | 2300 |  |  | 43.4
Nc1nnc(-c2ccc3[nH]cc(-c4cncc(OC5CCCC5)n4)c3c2)s1 [Example 160, 5-(3-(6-(cyclopentyloxy)-2-pyrazinyl)-1H-indol-5-yl)-1,3,4-thiadiazol-2-amine] | 10.7 | 24.6 | 10.5 | 6540 |  |  | 176
COc1cc(-c2c[nH]c3ccc(-c4nnc(N)s4)cc23)nc(OC(C)C)n1 [Example 200, 5-(3-(6-methoxy-2-(1-methylethoxy)-4-pyrimidinyl)-1H-indol-5-yl)-1,3,4-thiadiazol-2-amine] | 2.17 | 30.1 | 15.4 | 3800 | 112 |  | 
Nc1nnc(-c2ccc3[nH]cc(-c4cccc(-n5cccn5)n4)c3c2)o1 [Example 77, 5-(3-(6-(1H-pyrazol-1-yl)-2-pyridinyl)-1H-indol-5-yl)-1,3,4-oxadiazol-2-amine] | 4.13 | 13.7 | 11.9 | 1890 |  |  | 112
CC(C)Oc1cccc(-c2c[nH]c3ccc(-c4nnc(N)o4)cc23)n1 [Example 87, 5-(3-(6-(1-methylethoxy)-2-pyridinyl)-1H-indol-5-yl)-1,3,4-oxadiazol-2-amine] | 1.11 | 5.46 | 4.15 | 823 | 45.1 |  | 
CC(C)Nc1nnc(-c2ccc3[nH]cc(-c4cncc(C5CC5)n4)c3c2)o1 [Example 46, 5-(3-(6-cyclopropylpyrazin-2-yl)-1H-indol-5-yl)-N-isopropyl-1,3,4-oxadiazol-2-amine] | 0.498 | 4.25 | 1.39 | 827 | 32.1 |  | 
Nc1nnc(-c2ccc3[nH]cc(-c4cncc(C5CC5)n4)c3c2)o1 [Example 98, 5-(3-(6-cyclopropyl-2-pyrazinyl)-1H-indol-5-yl)-1,3,4-oxadiazol-2-amine] | 1.59 | 4.85 | 4.34 | 721 | 85.7 |  | 

The next lines start with results.

IC50 [1] [nM] | IC50 [2] [nM] | IC50 ([3]; Pim-1 enzyme assay) [nM] | SMILES | IC50 [4] [nM] | IC50 ([5]; read-out: U2OS Pim1_Cell_IC50) [nM] | IC50 [3] [nM] | IC50 [5, 6] [nM]
3.25 | 21.6 | 14.7 | CCOc1cccc(-c2c[nH]c3ccc(-c4nnc(N)s4)cc23)n1 [Example 164, 5-(3-(6-ethoxy-2-pyridinyl)-1H-indol-5-yl)-1,3,4-thiadiazol-2-amine] | 3730 | 141 |  | 
2.79 | 10.9 | 2.51 | Nc1nnc(-c2ccc3[nH]cc(-c4cncc(N5CCCCC5)n4)c3c2)s1 [Example 198, 5-(3-(6-(1-piperidinyl)-2-pyrazinyl)-1H-indol-5-yl)-1,3,4-thiadiazol-2-amine] | 1720 |  |  | 36.9
12.3 | 82.4 | 31.3 | CNc1nnc(-c2ccc3[nH]cc(-c4ccnc(N5CCOCC5)n4)c3c2)s1 [Example 129, N-methyl-5-(3-(2-(4-morpholinyl)-4-pyrimidinyl)-1H-indol-5-yl)-1,3,4-thiadiazol-2-amine] | > 31600 |  |  | 982
5.87 | 64.4 | 19 | C[C@H]1CCCCN1c1cccc(-c2c[nH]c3ccc(-c4nnc(N)s4)cc23)n1 (stereo in doubt) [Example 167, 5-(3-(6-(2-methyl-1-piperidinyl)-2-pyridinyl)-1H-indol-5-yl)-1,3,4-thiadiazol-2-amine] | 25000 | 421 |  | 
7.8 | 27.8 | 19.7 | CCOc1cncc(-c2c[nH]c3ccc(-c4nnc(N)s4)cc23)n1 [Example 19, 5-(3-(6-ethoxypyrazin-2-yl)-1H-indol-5-yl)-1,3,4-thiadiazol-2-amine] | 2750 |  |  | 205
12.3 | 16.3 | 38 | CNc1nnc(-c2ccc3[nH]cc(-c4nccc(N5CCOCC5)n4)c3c2)s1 [Example 134, N-methyl-5-(3-(4-(4-morpholinyl)-2-pyrimidinyl)-1H-indol-5-yl)-1,3,4-thiadiazol-2-amine] | 6110 |  |  | 1440
4 | 19.4 | 13.4 | Nc1nnc(-c2ccc3[nH]cc(-c4ccnc(N5CCOCC5)n4)c3c2)s1 [Example 133, 5-(3-(2-(4-morpholinyl)-4-pyrimidinyl)-1H-indol-5-yl)-1,3,4-thiadiazol-2-amine] | 8060 |  |  | 535
